Test results reported in EP4722207A1, “OXOISOINDOLINYL-SUBSTITUTED TETRAHYDROPYRIMIDINEDIONE DERIVATIVE AND USE THEREOF” (Gluetacs Therapeutics (Shanghai) Co., Ltd., priority 2023, dated 2024).

What was measured:
IKZF2 = biological target: T1, IKZF2 (Homo sapiens, UniProt Q96SW2+Q9UKS7); experiment: Western-blot assay, substrate protein degradation in hPBMCs: IKZF2; format: cell-based; conditions: for substrate protein remaining % IKZF2: 24 hours of compound treatment, 50 nM and 500 nM; for IKZF2 substrate protein remaining %: compounds at 50 nM and 500 nM, 24 hours
T1 construct: effects of the compounds of the present disclosure on the expression of target proteins in cells; endogenous in cells; host or cells: human PBMCs (hPBMCs)

IKZF1 = biological target: T2, IKZF1 (Homo sapiens, UniProt Q13422+Q96SW2); experiment: Western-blot assay, substrate protein degradation in hPBMCs: IKZF1; format: cell-based; conditions: for substrate protein remaining % IKZF1: 24 hours of compound treatment, 50 nM and 500 nM; for IKZF1 substrate protein remaining %: compounds at 50 nM and 500 nM, 24 hours
T2 construct: effects of the compounds of the present disclosure on the expression of target proteins in cells; endogenous in cells; host or cells: human PBMCs (hPBMCs)

GSPT1 = biological target: T3, GSPT1 (Homo sapiens, UniProt P15170+Q96SW2); experiment: Western-blot assay, substrate protein degradation in hPBMCs: GSPT1; format: cell-based; conditions: for substrate protein remaining % GSPT1: 24 hours of compound treatment, 50 nM and 500 nM; for GSPT1 substrate protein remaining %: compounds at 50 nM and 500 nM, 24 hours
T3 construct: effects of the compounds of the present disclosure on the expression of target proteins in cells; endogenous in cells; host or cells: human PBMCs (hPBMCs)

WEE1 = biological target: T4, WEE1 (Homo sapiens, UniProt P30291+Q96SW2); experiment: Western-blot assay, substrate protein degradation in hPBMCs: WEE1; format: cell-based; conditions: for substrate protein remaining % WEE1: 24 hours of compound treatment, 50 nM and 500 nM; for WEE1 substrate protein remaining %: compounds at 50 nM and 500 nM, 24 hours
T4 construct: effects of the compounds of the present disclosure on the expression of target proteins in cells; endogenous in cells; host or cells: human PBMCs (hPBMCs)

IKZF3 = biological target: T5, IKZF3 (Homo sapiens, UniProt Q96SW2+Q9UKT9); experiment: Western-blot assay, substrate protein degradation in hPBMCs: IKZF3; format: cell-based; conditions: for substrate protein remaining % IKZF3: 24 hours of compound treatment, 50 nM and 500 nM; for IKZF3 substrate protein remaining %: compounds at 50 nM and 500 nM, 24 hours
T5 construct: effects of the compounds of the present disclosure on the expression of target proteins in cells; endogenous in cells; host or cells: human PBMCs (hPBMCs)

MM.1S = experiment: Cell viability assay (CellTiter-Meiluncell Luminescent), tumor cell proliferation, MM.1S; conditions: Homo sapiens, MM1.S, 96 h, read-out: inhibitory activity (IC50, nM) against tumor cells proliferation, MM.1S
Experimental: The tumor cells used herein were cultured in a cell culture medium listed in table 2 at 37°C in an incubator with 5% CO2. Prior to experimentation, all cell lines used were correctly identified by STR profiling, and tested negative for mycoplasma contamination using a mycoplasma detection kit through routine screenings.
On the following day, the test compounds of the present disclosure were subjected to serial dilution. […] Subsequently, 0.5 µL of the test compound dilution was transferred into the 96-well plate containing the cells, with each well containing 100 µL of cell culture medium. […] Into the 96-well plate, the diluted test compounds and corresponding detection reagents were added, resulting in final test compound concentrations of 500 nM and 10 nM, respectively. The experimental procedure is described below using the diluted 2 µM test compound as an example.
(§1) After the cells were treated with the compounds of the present disclosure for a specified period, the cell viability assay reagent was added to the culture medium according to the kit's instructions to determine cell viability. […] All controls were treated using the same procedure as the compounds of the present disclosure. The growth inhibition curves for the compounds of the present disclosure were plotted using Prism GraphPad software, and the IC50 values were calculated therefrom.

Jurkat = experiment: Cell viability assay (CellTiter-Meiluncell Luminescent), tumor cell proliferation, Jurkat; conditions: Homo sapiens, 96 h, read-out: inhibitory activity (IC50, nM) against tumor cells proliferation, Jurkat
Experimental: On the following day, the test compounds of the present disclosure were subjected to serial dilution. […] Subsequently, 0.5 µL of the test compound dilution was transferred into the 96-well plate containing the cells, with each well containing 100 µL of cell culture medium. […] Into the 96-well plate, the diluted test compounds and corresponding detection reagents were added, resulting in final test compound concentrations of 500 nM and 10 nM, respectively.
as §1

CK1α = biological target: T6, CK1α (Homo sapiens, UniProt P48729+Q96SW2); experiment: Western-blot assay, substrate protein degradation in hPBMCs: CK1α; format: cell-based; conditions: for substrate protein remaining % CK1α: 24 hours of compound treatment, 50 nM and 500 nM; for CK1α substrate protein remaining %: compounds at 50 nM and 500 nM, 24 hours
T6 construct: effects of the compounds of the present disclosure on the expression of target proteins in cells; endogenous in cells; host or cells: human PBMCs (hPBMCs)

MV-4-11 = experiment: Cell viability assay (CellTiter-Meiluncell Luminescent), tumor cell proliferation, MV-4-11; conditions: Homo sapiens, MV4-11, 96 h, read-out: inhibitory activity (IC50, nM) against tumor cells proliferation, MV-4-11

T4 sequence (P30291 whole entry): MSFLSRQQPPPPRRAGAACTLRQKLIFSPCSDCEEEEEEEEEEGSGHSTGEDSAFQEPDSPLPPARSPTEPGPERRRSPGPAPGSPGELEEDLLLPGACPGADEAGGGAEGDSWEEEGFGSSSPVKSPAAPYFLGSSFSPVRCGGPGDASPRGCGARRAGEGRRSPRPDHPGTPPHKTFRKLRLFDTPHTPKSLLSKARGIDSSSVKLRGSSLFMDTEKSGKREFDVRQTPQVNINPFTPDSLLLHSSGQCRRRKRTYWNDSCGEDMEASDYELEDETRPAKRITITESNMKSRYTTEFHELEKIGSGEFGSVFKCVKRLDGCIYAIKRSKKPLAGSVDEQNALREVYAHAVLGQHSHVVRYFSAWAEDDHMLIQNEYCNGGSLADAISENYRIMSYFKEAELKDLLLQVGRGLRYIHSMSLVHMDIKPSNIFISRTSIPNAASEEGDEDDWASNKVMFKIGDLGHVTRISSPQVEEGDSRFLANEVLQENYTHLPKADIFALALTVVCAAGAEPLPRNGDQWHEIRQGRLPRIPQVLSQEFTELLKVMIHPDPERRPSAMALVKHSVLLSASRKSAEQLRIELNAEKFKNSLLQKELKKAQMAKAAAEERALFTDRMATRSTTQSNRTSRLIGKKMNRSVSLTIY
T4 sequence (Q96SW2 whole entry): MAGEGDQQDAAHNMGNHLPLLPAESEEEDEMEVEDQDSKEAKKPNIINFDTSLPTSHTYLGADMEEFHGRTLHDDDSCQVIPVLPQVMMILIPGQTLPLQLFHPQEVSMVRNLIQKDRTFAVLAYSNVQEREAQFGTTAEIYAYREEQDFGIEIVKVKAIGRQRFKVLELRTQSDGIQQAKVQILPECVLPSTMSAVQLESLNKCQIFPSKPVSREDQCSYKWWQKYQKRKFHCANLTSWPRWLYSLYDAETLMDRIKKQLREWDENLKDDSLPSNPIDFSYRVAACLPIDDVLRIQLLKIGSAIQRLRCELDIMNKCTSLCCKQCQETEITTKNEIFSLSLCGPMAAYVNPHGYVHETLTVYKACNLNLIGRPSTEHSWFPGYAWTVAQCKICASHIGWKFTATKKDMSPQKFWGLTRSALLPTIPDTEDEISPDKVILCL
T4 sequence (Q16531 whole entry partner): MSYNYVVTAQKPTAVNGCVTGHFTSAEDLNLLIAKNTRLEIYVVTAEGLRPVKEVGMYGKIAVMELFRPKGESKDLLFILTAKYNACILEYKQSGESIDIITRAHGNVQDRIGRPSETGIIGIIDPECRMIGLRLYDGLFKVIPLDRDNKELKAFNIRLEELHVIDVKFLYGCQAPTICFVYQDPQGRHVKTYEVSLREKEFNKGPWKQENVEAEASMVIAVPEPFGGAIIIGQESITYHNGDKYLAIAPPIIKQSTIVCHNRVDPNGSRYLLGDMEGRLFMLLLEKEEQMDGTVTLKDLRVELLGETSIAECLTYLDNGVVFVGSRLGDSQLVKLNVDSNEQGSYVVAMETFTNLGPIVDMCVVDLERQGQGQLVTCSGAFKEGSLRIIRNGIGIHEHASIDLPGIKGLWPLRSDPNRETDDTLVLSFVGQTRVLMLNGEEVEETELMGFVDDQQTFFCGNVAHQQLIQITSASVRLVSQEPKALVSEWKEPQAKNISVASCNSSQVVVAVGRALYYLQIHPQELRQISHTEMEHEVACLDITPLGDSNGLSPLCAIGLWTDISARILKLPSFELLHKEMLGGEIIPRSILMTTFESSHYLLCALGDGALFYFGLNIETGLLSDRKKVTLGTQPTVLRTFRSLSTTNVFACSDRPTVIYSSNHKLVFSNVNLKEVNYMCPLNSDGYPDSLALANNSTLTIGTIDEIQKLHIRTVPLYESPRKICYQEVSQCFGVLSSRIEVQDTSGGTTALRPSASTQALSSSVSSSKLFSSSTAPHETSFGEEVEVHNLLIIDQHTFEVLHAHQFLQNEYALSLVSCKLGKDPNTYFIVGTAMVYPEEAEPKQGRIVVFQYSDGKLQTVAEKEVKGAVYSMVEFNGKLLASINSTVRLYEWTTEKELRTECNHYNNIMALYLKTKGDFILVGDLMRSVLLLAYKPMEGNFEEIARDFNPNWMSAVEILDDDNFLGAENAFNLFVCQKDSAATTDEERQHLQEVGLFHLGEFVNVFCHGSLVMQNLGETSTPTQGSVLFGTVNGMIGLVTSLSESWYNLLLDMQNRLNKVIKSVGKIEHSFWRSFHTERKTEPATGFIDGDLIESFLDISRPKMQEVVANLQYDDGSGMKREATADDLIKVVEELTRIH
T2 sequence (Q13422 whole entry): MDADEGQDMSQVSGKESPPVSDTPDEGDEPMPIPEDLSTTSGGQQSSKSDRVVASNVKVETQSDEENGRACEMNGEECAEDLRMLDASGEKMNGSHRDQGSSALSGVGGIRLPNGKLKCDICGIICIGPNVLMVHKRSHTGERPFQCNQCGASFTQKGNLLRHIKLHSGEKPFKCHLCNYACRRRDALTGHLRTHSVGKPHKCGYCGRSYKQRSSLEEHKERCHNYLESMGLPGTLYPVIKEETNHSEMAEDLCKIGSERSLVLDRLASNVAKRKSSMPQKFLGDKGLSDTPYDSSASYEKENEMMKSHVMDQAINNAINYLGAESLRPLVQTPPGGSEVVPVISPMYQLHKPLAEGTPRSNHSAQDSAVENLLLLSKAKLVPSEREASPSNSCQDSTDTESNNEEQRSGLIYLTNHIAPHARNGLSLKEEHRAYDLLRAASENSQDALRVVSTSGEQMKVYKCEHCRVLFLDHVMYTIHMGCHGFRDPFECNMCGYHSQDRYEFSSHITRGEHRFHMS
T2 sequence (Q96SW2 whole entry): as the sequence (Q96SW2 whole entry) above
T2 sequence (Q16531 whole entry partner): as the sequence (Q16531 whole entry partner) above
T3 sequence (P15170 whole entry): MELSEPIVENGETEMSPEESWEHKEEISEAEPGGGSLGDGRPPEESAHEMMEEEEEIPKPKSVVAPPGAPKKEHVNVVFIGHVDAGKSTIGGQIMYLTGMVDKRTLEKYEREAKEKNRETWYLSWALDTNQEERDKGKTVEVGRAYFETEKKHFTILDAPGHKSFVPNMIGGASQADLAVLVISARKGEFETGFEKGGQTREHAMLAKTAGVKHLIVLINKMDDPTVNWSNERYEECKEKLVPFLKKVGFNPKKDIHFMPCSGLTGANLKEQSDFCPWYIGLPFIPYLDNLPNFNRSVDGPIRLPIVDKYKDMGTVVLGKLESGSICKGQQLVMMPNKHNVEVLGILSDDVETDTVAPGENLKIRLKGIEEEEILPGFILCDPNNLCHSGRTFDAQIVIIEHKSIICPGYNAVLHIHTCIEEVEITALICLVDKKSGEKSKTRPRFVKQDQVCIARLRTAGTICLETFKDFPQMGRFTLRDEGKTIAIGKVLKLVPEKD
T3 sequence (Q96SW2 whole entry): as the sequence (Q96SW2 whole entry) above
T3 sequence (Q16531 whole entry partner): as the sequence (Q16531 whole entry partner) above
T1 sequence (Q9UKS7 whole entry): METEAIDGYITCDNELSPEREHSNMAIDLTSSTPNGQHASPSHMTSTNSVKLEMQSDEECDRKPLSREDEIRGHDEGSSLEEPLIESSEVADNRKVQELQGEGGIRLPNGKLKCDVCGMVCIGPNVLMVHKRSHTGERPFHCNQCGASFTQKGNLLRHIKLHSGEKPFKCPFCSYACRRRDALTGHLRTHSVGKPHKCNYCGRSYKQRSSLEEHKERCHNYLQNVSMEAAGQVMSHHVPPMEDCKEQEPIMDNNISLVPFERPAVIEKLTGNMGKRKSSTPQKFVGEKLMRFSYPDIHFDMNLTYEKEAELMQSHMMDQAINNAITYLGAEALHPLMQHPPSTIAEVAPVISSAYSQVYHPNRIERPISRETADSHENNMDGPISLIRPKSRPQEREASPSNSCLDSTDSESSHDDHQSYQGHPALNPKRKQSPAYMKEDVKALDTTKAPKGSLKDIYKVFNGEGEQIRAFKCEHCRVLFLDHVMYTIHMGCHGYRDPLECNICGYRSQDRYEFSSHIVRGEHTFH
T1 sequence (Q96SW2 whole entry): as the sequence (Q96SW2 whole entry) above
T1 sequence (Q16531 whole entry partner): as the sequence (Q16531 whole entry partner) above
T6 sequence (P48729 whole entry): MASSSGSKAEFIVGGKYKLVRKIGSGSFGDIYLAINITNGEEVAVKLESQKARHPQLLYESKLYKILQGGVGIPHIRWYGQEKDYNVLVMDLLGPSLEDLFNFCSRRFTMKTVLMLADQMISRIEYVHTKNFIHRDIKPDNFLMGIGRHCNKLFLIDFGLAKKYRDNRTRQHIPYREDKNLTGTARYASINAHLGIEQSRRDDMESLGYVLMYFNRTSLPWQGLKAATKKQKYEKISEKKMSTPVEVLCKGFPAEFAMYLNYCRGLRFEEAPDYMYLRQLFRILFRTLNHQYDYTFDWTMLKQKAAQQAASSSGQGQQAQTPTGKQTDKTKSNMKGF
T6 sequence (Q96SW2 whole entry): as the sequence (Q96SW2 whole entry) above
T6 sequence (Q16531 whole entry partner): as the sequence (Q16531 whole entry partner) above

SMILES | substrate protein remaining % IKZF2 (IKZF2) | substrate protein remaining % IKZF1 (IKZF1) | substrate protein remaining % GSPT1 (GSPT1) | substrate protein remaining % WEE1 (WEE1) | substrate protein remaining % IKZF3 (IKZF3) | IC50 (MM.1S) | IC50 (Jurkat) | substrate protein remaining % CK1α (CK1α) | IKZF2 substrate protein remaining % (IKZF2) | IKZF1 substrate protein remaining % (IKZF1) | GSPT1 substrate protein remaining % (GSPT1) | WEE1 substrate protein remaining % (WEE1) | IKZF3 substrate protein remaining % (IKZF3) | CK1α substrate protein remaining % (CK1α) | IC50 (MV-4-11)
O=C1CCN(N2Cc3cc(CN4CC=C(c5cccc6c(F)cccc56)CC4)ccc3C2=O)C(=O)N1 [GT-07590, 1-(5-((4-(5-fluoronaphthalen-1-yl)-3,6-dihydropyridin-1(2H)-yl)methyl)-1-oxoisoindolin-2-yl)dihydropyrimidine-2,4(1H,3H)-dione] | A (0% ≤ substrate protein remaining % ≤ 80%) | A (0% ≤ substrate protein remaining % ≤ 80%) | A (0% ≤ substrate protein remaining % ≤ 80%) | A (0% ≤ substrate protein remaining % ≤ 80%) | A (0% ≤ substrate protein remaining % ≤ 80%) | 10 to 50 nM | 50 to 100 nM | B (80%< substrate protein remaining %≤ 100%) | – | – | – | – | – | – | –
Cn1cc(C2CCN(Cc3ccc4c(c3)CN(N3CCC(=O)NC3=O)C4=O)CC2)c2ccc(F)cc21 [GT-07575, 1-(5-((4-(6-fluoro-1-methyl-1H-indol-3-yl)piperidin-1-yl)methyl)-1-oxoisoindolin-2-yl)dihydropyrimidine-2,4(1H,3H)-dione] | A (0% ≤ substrate protein remaining % ≤ 80%) | A (0% ≤ substrate protein remaining % ≤ 80%) | A (0% ≤ substrate protein remaining % ≤ 80%) | A (0% ≤ substrate protein remaining % ≤ 80%) | A (0% ≤ substrate protein remaining % ≤ 80%) | 100 to 300 nM | 100 to 300 nM | A (0% ≤ substrate protein remaining % ≤ 80%) | – | – | – | – | – | – | –
O=C1CCN(N2Cc3cc(CN4CC=C(c5n[nH]c6cc(F)ccc56)CC4)ccc3C2=O)C(=O)N1 [GT-07578, 1-(5-((4-(6-fluoro-1H-indazol-3-yl)-3,6-dihydropyridin-1(2H)-yl)methyl)-1-oxoisoindolin-2-yl)dihydropyrimidine-2,4(1H,3H)-dione] | A (0% ≤ substrate protein remaining % ≤ 80%) | A (0% ≤ substrate protein remaining % ≤ 80%) | A (0% ≤ substrate protein remaining % ≤ 80%) | A (0% ≤ substrate protein remaining % ≤ 80%) | B (80%< substrate protein remaining %≤ 100%) | 50 to 100 nM | 50 to 100 nM | B (80%< substrate protein remaining %≤ 100%) | – | – | – | – | – | – | –
O=C1CCN(N2Cc3cc(CN4CC=C(c5c[nH]c6ncccc56)CC4)ccc3C2=O)C(=O)N1 [GT-07577, 1-(5-((4-(1H-pyrrolo[2,3-b]pyridin-3-yl)-3,6-dihydropyridin-1(2H)-yl)methyl)-1-oxoisoindolin-2-yl)dihydropyrimidine-2,4(1H,3H)-dione] | B (80%< substrate protein remaining %≤ 100%) | A (0% ≤ substrate protein remaining % ≤ 80%) | A (0% ≤ substrate protein remaining % ≤ 80%) | A (0% ≤ substrate protein remaining % ≤ 80%) | A (0% ≤ substrate protein remaining % ≤ 80%) | 300 to 500 nM | 500 to 1000 nM | A (0% ≤ substrate protein remaining % ≤ 80%) | – | – | – | – | – | – | –
O=C1CCN(N2Cc3cc(CN4CC=C(c5ccco5)CC4)ccc3C2=O)C(=O)N1 [GT-04874, 1-(5-((4-(furan-2-yl)-3,6-dihydropyridin-1(2H)-yl)methyl)-1-oxoisoindolin-2-yl)dihydropyrimidine-2,4(1H,3H)-dione] | – | – | – | – | – | 100 to 300 nM | 500 to 1000 nM | – | B ("B" is defined as 80%< substrate protein remaining %≤ 100%) | A ("A" is defined as 0% ≤ substrate protein remaining % ≤ 80%) | A ("A" is defined as 0% ≤ substrate protein remaining % ≤ 80%) | A ("A" is defined as 0% ≤ substrate protein remaining % ≤ 80%) | A ("A" is defined as 0% ≤ substrate protein remaining % ≤ 80%) | B ("B" is defined as 80%< substrate protein remaining %≤ 100%) | –
O=C1CCN(N2Cc3cc(CN4CCC(c5cccs5)CC4)ccc3C2=O)C(=O)N1 [GT-07511, 1-(1-oxo-5-((4-(thiophen-2-yl)piperidin-1-yl)methyl)isoindolin-2-yl)dihydropyrimidine-2,4(1H,3H)-dione] | A (0% ≤ substrate protein remaining % ≤ 80%) | A (0% ≤ substrate protein remaining % ≤ 80%) | A (0% ≤ substrate protein remaining % ≤ 80%) | A (0% ≤ substrate protein remaining % ≤ 80%) | B (80%< substrate protein remaining %≤ 100%) | 500 to 1000 nM | 500 to 1000 nM | A (0% ≤ substrate protein remaining % ≤ 80%) | – | – | – | – | – | – | –
O=C1CCN(N2Cc3cc(CN4CC=C(c5ccnc(Cl)c5Cl)CC4)ccc3C2=O)C(=O)N1 [GT-07432, 1-(5-((2',3'-dichloro-3,6-dihydro-[4,4'-bipyridin]-1(2H)-yl)methyl)-1-oxoisoindolin-2-yl)dihydropyrimidine-2,4(1H,3H)-dione] | A (0% ≤ substrate protein remaining % ≤ 80%) | A (0% ≤ substrate protein remaining % ≤ 80%) | A (0% ≤ substrate protein remaining % ≤ 80%) | A (0% ≤ substrate protein remaining % ≤ 80%) | A (0% ≤ substrate protein remaining % ≤ 80%) | 300 to 500 nM | 500 to 1000 nM | A (0% ≤ substrate protein remaining % ≤ 80%) | – | – | – | – | – | – | –
O=C1CCN(N2Cc3cc(CN4CCN(C(c5cccc(F)c5)c5cccc(F)c5)CC4)ccc3C2=O)C(=O)N1 [GT-07293, 1-(5-((4-(bis(3-fluorophenyl)methyl)piperazin-1-yl)methyl)-1-oxoisoindolin-2-yl)dihydropyrimidine-2,4(1H,3H)-dione] | – | – | – | – | – | 100 to 300 nM | 100 to 300 nM | – | A ("A" is defined as 0% ≤ substrate protein remaining % ≤ 80%) | B ("B" is defined as 80%< substrate protein remaining %≤ 100%) | A ("A" is defined as 0% ≤ substrate protein remaining % ≤ 80%) | A ("A" is defined as 0% ≤ substrate protein remaining % ≤ 80%) | A ("A" is defined as 0% ≤ substrate protein remaining % ≤ 80%) | B ("B" is defined as 80%< substrate protein remaining %≤ 100%) | –
O=C1CCN(N2Cc3cc(CN4CCC(c5cccc(F)c5Cl)CC4)ccc3C2=O)C(=O)N1 [GT-06894, 1-(5-((4-(2-chloro-3-fluorophenyl)piperidin-1-yl)methyl)-1-oxoisoindolin-2-yl)dihydropyrimidine-2,4(1H,3H)-dione] | – | – | – | – | – | – | 500 to 1000 nM | – | B ("B" is defined as 80%< substrate protein remaining %≤ 100%) | A ("A" is defined as 0% ≤ substrate protein remaining % ≤ 80%) | A ("A" is defined as 0% ≤ substrate protein remaining % ≤ 80%) | B ("B" is defined as 80%< substrate protein remaining %≤ 100%) | B ("B" is defined as 80%< substrate protein remaining %≤ 100%) | B ("B" is defined as 80%< substrate protein remaining %≤ 100%) | 300 to 500 nM
